PubChem BioAssay (NCI)
“And” between values parts separate entries of the source, which are not always exact repeats. Equal values may be shown once.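 48-hour exposure; five concentrations; linearly interpolated endpoints. GI50: concentration for 50% inhibition of growth. TGI: total growth inhibition.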

How the values were obtained:
Test in all cases: NCI tumour cell line growth inhibition, 48 h
ACHN renal = test system: ACHN renal
BT-549 breast = test system: BT-549 breast
EKVX NSCLC = test system: EKVX NSCLC
HCT-15 colon = test system: HCT-15 colon
HS 578T breast = test system: HS 578T breast
K-562 leukemia = test system: K-562 leukemia
LOX IMVI melanoma = test system: LOX IMVI melanoma
RXF 393 renal = test system: RXF 393 renal
UACC-257 melanoma = test system: UACC-257 melanoma
MDA-MB-435 = test system: MDA-MB-435

Row | SMILES | GI50 (ACHN renal) [µM] | TGI (ACHN renal) [µM] | GI50 (BT-549 breast) [µM] | TGI (BT-549 breast) [µM] | GI50 (EKVX NSCLC) [µM] | TGI (EKVX NSCLC) [µM] | GI50 (HCT-15 colon) [µM] | TGI (HCT-15 colon) | GI50 (HS 578T breast) [µM] | TGI (HS 578T breast) [µM] | GI50 (K-562 leukemia) [µM] | TGI (K-562 leukemia) [µM] | GI50 (LOX IMVI melanoma) [µM] | TGI (LOX IMVI melanoma) [µM] | TGI (RXF 393 renal) [µM] | TGI (UACC-257 melanoma) [µM] | TGI (MDA-MB-435) [µM] | GI50 (MDA-MB-435) [µM] | GI50 (RXF 393 renal) [µM] | GI50 (UACC-257 melanoma) [µM]
1 | Cc1ccc2c(c1)C(C)Cc1c(ncnc1-n1cnc3ccccc31)N2C (configuration not stated) | 0.953 | 20.3 | 1.37 | 20.6 | 0.511 | 17.5 | 0.414 | 12.7 µM | 0.376 | 28.9 | 0.0801 | 14.1 | 0.705 | 16.2 |  |  |  |  |  | 
2 | CN(C)c1ccc2c(=O)c3ccccc3oc2n1 |  | > 100 |  |  |  | > 100 |  | > 100 µM |  |  |  | > 100 |  | > 100 | > 100 | > 100 |  |  |  | 
3 | O=C(Nc1ccccc1-c1n[nH]c(=S)[nH]c1=O)C(F)(F)F |  | > 100 |  |  |  | > 100 |  | > 100 µM |  |  |  | > 100 |  | > 100 | > 100 |  |  |  |  | 
4 | CCOc1ccccc1NC(=O)CC1C(=O)Nc2ccccc2S1=O (configuration not stated) |  | > 100 |  |  |  | > 100 |  | > 100 µM |  |  |  | > 100 |  | > 100 | > 100 | > 100 |  |  |  | 
5 | Clc1ncnc(Cl)c1Cl |  | > 100 |  |  |  |  |  | > 100 µM |  | > 100 |  | > 100 |  | > 100 | > 100 |  | > 100 |  |  | 
6 | CC(=O)N[C@@H](Cc1ccc(OP(=O)(O)O)cc1)C(=O)N[C@H]1CCC(=O)N2CCC[C@@H](C(=O)NCc3ccc(Cl)cc3)N2C1=O | > 25 | > 25 | > 25 | > 25 |  |  | > 25 | > 25 µM | > 25 | > 25 | > 25 | > 25 | > 25 | > 25 | > 25 | > 25 | > 25 | > 25 | > 25 | > 25
7 | CS/C(=N\C(=S)N(C)C)N(c1ccccc1)c1nc(=[N+](C)C)ss1 |  | > 100 |  |  |  | 49.3 |  | > 100 µM |  |  |  | 12.5 |  | 18.1 | 37.4 | 17.3 |  |  |  | 
8 | O=C(/C=C/c1ccc(OCCCOc2ccc(/C=C/C(=O)c3ccccc3)cc2)cc1)c1ccccc1 |  | > 100 |  |  |  | > 100 |  | > 100 µM |  |  |  | > 100 |  | > 100 | > 100 | > 100 |  |  |  | 
9 | O=C(O)C/C(=C\c1ccco1)C(=O)O |  | > 100 |  | > 100 |  | > 100 |  | > 100 µM |  |  |  | > 100 |  | > 100 | > 100 | > 100 | > 100 |  |  | 
10 | COc1ccc(C(=O)c2cc(OC)c(OC)c(OC)c2)cc1 |  | > 91.3 |  | > 100 |  | > 100 |  |  |  |  |  | > 100 |  | > 82.2 | > 100 | > 100 | 0.0424 |  |  | 
11 | N#Cc1ccccc1NC(=O)/C(=N\N)C(C(=O)c1ccncc1)C1OC(=O)c2ccccc21 (configuration not stated) |  | > 100 |  |  |  | > 100 |  | > 100 µM |  |  |  | > 100 |  | > 100 |  | > 100 |  |  |  | 
12 | COc1ccccc1/C=C(\C#N)c1ccccc1 |  | > 100 |  |  |  |  |  | 67.4 µM |  |  |  | 33.8 |  | > 100 | 69.3 | > 100 |  |  |  | 
13 | Cc1ccc(NC(=O)c2cc3cc(N=Nc4ccc(Br)cc4)ccc3oc2=O)cc1 |  | > 100 |  |  |  |  |  | > 100 µM |  |  |  |  |  | > 100 | > 100 | > 100 |  |  |  | 
14 | Cc1ccc(S(=O)(=O)c2c(N)c3nc4ccccc4n3c3nc4ccccc4nc23)cc1 |  | > 100 |  |  |  | > 100 |  | > 100 µM |  |  |  | > 100 |  | > 100 |  | > 100 |  |  |  | 
15 | N=C(N)c1ccc(OCc2cccc(COc3ccc(C(=N)N)cc3)c2)cc1 | 17.8 | 49.3 | 3.41 | 9.37 | 2.85 | 8.25 | 17.8 | > 100 µM | 4 | 12.5 | 3.62 | 19 |  |  |  | 84.8 | 11.8 | 4.01 |  | 14.4
16 | O=C1[C@@H]2C(c3ccccc3Br)=NO[C@@H]2C(=O)N1c1ccc(Cc2ccc(N3C(=O)[C@H]4C(c5ccccc5Br)=NO[C@H]4C3=O)cc2)cc1 |  | > 100 |  |  |  | > 100 |  | > 100 µM |  |  |  | > 100 |  | > 100 | > 100 | > 100 |  |  |  | 
17 | Nc1c(C(=O)c2cccc(CCCN3CCOCC3)c2)cnn1-c1ccc(F)cc1 | > 25 | > 25 | > 25 | > 25 |  |  | > 25 | > 25 µM | > 25 | > 25 | > 25 | > 25 | > 25 | > 25 | > 25 | > 25 | > 25 | > 25 | > 25 | > 25
18 | COc1cc(C2c3[nH]c4ccccc4c3C[C@H]3COC(=O)N23)cc(OC)c1OC (some centres not stated) | < 0.01 | > 100 |  |  |  | > 100 | < 0.01 | 6.72 µM and 1.39 µM |  | 0.0814 | < 0.01 | 1.13 | < 0.01 |  |  | > 100 | 0.0494 |  |  | < 0.01
19 | COc1c(C=O)c2c(c(OC)c1OC)-c1ccc(OC)c(=O)cc1[C@@H](NC(C)=O)CC2 |  | > 100 |  | > 100 |  | > 100 |  | > 100 µM |  |  |  | > 100 |  | 49.8 | > 56.3 | > 88.8 | 24.6 |  |  | 
20 | O=C(Nc1ccc(Cl)cc1Cl)C1C(=O)N(c2ccc(Cl)cc2Cl)C(=O)/C1=N\Nc1ccc([N+](=O)[O-])cc1[N+](=O)[O-] (configuration not stated) |  | > 100 |  |  |  | > 100 |  | > 100 µM |  |  |  | > 100 |  |  |  | 98.7 |  |  |  | 
21 | COC(=O)C1=C(c2ccc(OC)c(OC)c2)OC(c2ccc(OC)c(OC)c2)C1 (configuration not stated) |  | > 100 |  |  |  | > 100 |  | > 100 µM |  |  |  | > 100 |  | > 100 | 69.9 | > 100 |  |  |  | 
22 | C/C(CN1C(=O)c2ccccc2C1=O)=N\NS(=O)(=O)c1ccc(C)cc1 |  | > 100 |  |  |  | > 100 |  | > 100 µM |  |  |  | > 100 |  |  |  | > 100 |  |  |  | 
